{
  "source": "patent US5627161A",
  "about": "(Memorial Hospital for Cancer and Allied Diseases, priority 1993, dated 1997)",
  "system": "PRPP levels of isolated splenocytes",
  "assay": "PRPP levels of isolated splenocytes incubated in vitro with UDPG or G-6-P",
  "assay_type": "cell-based, mouse",
  "details": "for PRPP levels: soluble fraction of homogenates",
  "method": "Isolation of splenocytes and hepatic cells: The organs were gently teased apart with forceps over a fine tea strainer into PBS or minimum essential culture medium (MEM) containing 0.1M potassium phosphate buffer pH 7.4 with and without added effectors. […] The supernatant solutions were assayed for PRPP.\nThe vials were shaken vigorously and their radioactivity determined.",
  "data": [
    {"smiles": "O=P(O)(O)OC[C@H]1OC(O)[C@H](O)[C@@H](O)[C@@H]1O", "note": "(some centres unmarked) [G-6-P, Glucose-6-phosphate]", "values": [
      {"measurement": "PRPP levels", "setting": "1.1 mM in MEM", "value": 969, "unit": "pmoles/mg protein"},
      {"measurement": "PRPP levels", "setting": "5.5 mM in MEM", "value": 1418, "unit": "pmoles/mg protein"},
      {"measurement": "PRPP levels", "setting": "11 mM in MEM", "value": 1510, "unit": "pmoles/mg protein"},
      {"measurement": "PRPP levels", "setting": "22 mM in MEM", "value": 1998, "unit": "pmoles/mg protein"},
      {"measurement": "effect on intracellular PRPP level of splenocytes as a function of concentration", "setting": "isolated splenocytes, in words", "value": "not evident below a concentration of 5.5 mM"}
    ]}
  ]
}
